We go through 8 compounds from patent US10548861B2 (Academia Sinica, priority 2015, dated 2020).

One data set has as its system NECB1. As to the kind of experiment: Drug combination cytotoxicity with BO-1055. It counts as cell-based, human.
The subject of data set [1] is HBL2. As to the kind of experiment: Drug combination cytotoxicity with BO-1055. The following applies: Homo sapiens, HBL2, 72 h, read-out: IC50 single drug. It counts as cell-based.
For a further data set, the system named is Granta. The data set can be described thus: Drug combination cytotoxicity with BO-1055. Type of data set: cell-based, human.
The next data set deals with JEKO-1. As to the kind of experiment: Drug combination cytotoxicity with BO-1055. It counts as cell-based. The following applies: Homo sapiens, JeKo-1, 72 h, read-out: IC50 single drug.
The next data set concerns Mino. The data set can be described thus: Drug combination cytotoxicity with BO-1055. Type of data set: cell-based, human.
In the next data set the test system is Z-138. The data set can be described thus: Drug combination cytotoxicity with BO-1055. It counts as cell-based, human.
The test system of data set [2] is REC-1. The data set can be described thus: Drug combination cytotoxicity with BO-1055. Type of data set: cell-based, human.
Data set [3] concerns Ewing's sarcoma primary patient tumor. As to the kind of experiment: Cyclophosphamide-resistant primary Ewing's sarcoma xenograft. The following applies: cyclophosphamide 70 mg/kg i.p. x3, then BO-1055 30 mg/kg iv x4. Type of data set: in vivo, NSG mice.
The test system of data set [4] is H526 variant SCLC cell line vs normal human tissues. Type of data set: cell-based.
Data set [5] deals with primary AML (AML-2) vs normal human tissues. Type of data set: cell-based.
Data set [6] relates to normal human, murine or primate cell and tissue types. The data set can be described thus: MTT / alamar blue cytotoxicity on panel of normal tissues. The following applies: read-out: IC50 range. It counts as cell-based. (In general: Alamar Blue is a resazurin reagent that responds to reducing activity.)
Data set [7] relates to primary B-ALL vs normal human tissues. Type of data set: cell-based.
The subject of data set [8] is MV4;11 AML cell line vs normal human tissues. Type of data set: cell-based.
The test system of data set [9] is MA-10-W51 CB MLL-AF9 + Flt3ITD. The data set can be described thus: Cytotoxicity: AML HSC-derived. It counts as cell-based, human. The following applies: growth factor dependent MA-10-W51, FIG. 9. An excerpt:
• a) Growth factor-dependent & cell density growth dependent cell lines. Human cord blood CD34+ cells transduced with MLL-AF9 gene: MA-10, MA-18. Human bone marrow CD34+ cells transduced with MLL-AF9 gene: MA-23. Human cord blood CD34+ cells transduced with MLL-AF9 and N-ras genes: MA-9.3, MA-9.6. • b) Growth factor independent leukemic cell lines. Human MA-10 cells transduced with Flt3 ITD (W51) were adapted to in vitro proliferation without growth factors (Moore Laboratory).

The subject of data set [10] is REC-1. The data set can be described thus: Cytotoxicity: Mantle Cell Lymphoma. The following applies: Homo sapiens, Rec1.
The test system of data set [11] is HBL2. The data set can be described thus: Cytotoxicity: Mantle Cell Lymphoma. The following applies: Homo sapiens, HBL2.
A further data set deals with H60. The data set can be described thus: 72 hr cytotoxicity: SCLC classic. It counts as cell-based. The following applies: Homo sapiens.
The test system of the next data set is H82. The data set can be described thus: 72 hr cytotoxicity: SCLC variant. Type of data set: cell-based. The following applies: Homo sapiens, NCI-H82.
In another data set the test system is H249. As to the kind of experiment: 72 hr cytotoxicity: SCLC classic. The following applies: Homo sapiens. Type of data set: cell-based.
In the next data set the test system is H841. As to the kind of experiment: 72 hr cytotoxicity: SCLC variant. It counts as cell-based. The following applies: Homo sapiens, NCI-H841.
The subject of another data set is H209. The data set can be described thus: 72 hr cytotoxicity: SCLC classic. Type of data set: cell-based. The following applies: Homo sapiens, NCI-H209.
The test system of a further data set is BCI-NSI hTERT. The data set can be described thus: 72 hr cytotoxicity: Bronchial epithelium. Type of data set: cell-based. The following applies: Homo sapiens.
Another data set relates to H526. As to the kind of experiment: 72 hr cytotoxicity: SCLC variant. Type of data set: cell-based. The following applies: Homo sapiens, NCI-H526.
The next data set relates to H889. As to the kind of experiment: 72 hr cytotoxicity: SCLC classic. It counts as cell-based. The following applies: Homo sapiens, NCI-H889.
The next data set relates to H678. As to the kind of experiment: 72 hr cytotoxicity: SCLC classic. Type of data set: cell-based. The following applies: Homo sapiens.
In another data set the test system is BMMSC. As to the kind of experiment: 72 hr cytotoxicity: BM Mesenchyme. Type of data set: cell-based. The following applies: Homo sapiens.
The subject of the next data set is H417. As to the kind of experiment: 72 hr cytotoxicity: SCLC variant. It counts as cell-based. The following applies: Homo sapiens, NCI-H417.
A further data set has as its system H187. The data set can be described thus: 72 hr cytotoxicity: SCLC classic. Type of data set: cell-based. The following applies: Homo sapiens, NCI-H187.
For the next data set, the system named is FTE-hTERT. The data set can be described thus: 72 hr cytotoxicity: Fallopian epithelium. Type of data set: cell-based. The following applies: Homo sapiens.
The subject of a further data set is H719. The data set can be described thus: 72 hr cytotoxicity: SCLC classic. It counts as cell-based. The following applies: Homo sapiens.
In another data set the test system is H562. The data set can be described thus: 72 hr cytotoxicity: SCLC classic. Type of data set: cell-based. The following applies: Homo sapiens.
For a further data set, the system named is H146. As to the kind of experiment: 72 hr cytotoxicity: SCLC classic. Type of data set: cell-based. The following applies: Homo sapiens, NCI-H146.
In data set [12] the test system is normal cord blood CD34+ cells. The data set can be described thus: Cytotoxicity on normal cord blood CD34+ cells. It counts as cell-based. The following applies: Homo sapiens.
The test system of another data set is H524. As to the kind of experiment: 72 hr cytotoxicity: SCLC variant. It counts as cell-based. The following applies: Homo sapiens, NCI-H524.
The next data set relates to H69. The data set can be described thus: 72 hr cytotoxicity: SCLC classic. It counts as cell-based. The following applies: Homo sapiens, NCI-H69.
A further data set concerns H128. As to the kind of experiment: 72 hr cytotoxicity: SCLC classic. The following applies: Homo sapiens, NCI-H128; read-out: IC50. It counts as cell-based.
The next data set has as its system H211. As to the kind of experiment: 72 hr cytotoxicity: SCLC variant. Type of data set: cell-based. The following applies: Homo sapiens, NCI-H211; read-out: IC50.
Where [13] appears, read: Homo sapiens, 72 h, read-out: IC50 single drug.

Where two headings read alike, the source gives them in different places.

Take `CC(C)C[C@H](NC(=O)[C@H](Cc1ccccc1)NC(=O)c1cnccn1)B(O)O` [velcade, Bortezomib]: the “interaction with BO-1055 (combo-1, combo-2)” value was “synergistic with combo-1 and antagonistic with combo-2” in the data set with NECB1; “synergistic with combo-1 and antagonistic with combo-2” in the data set with Granta; “synergistic cytotoxic with both combinations” in the data set on Mino; “synergistic cytotoxic with both combinations” in the data set with Z-138; “antagonistic in both combinations” in the data set with REC-1 [2]. Besides, the IC50 (as a rule, the concentration at which inhibition is half-maximal) in the data set on NECB1 (setting [13]) is 137 nM; with HBL2 [1], 5 nM; with Granta (setting [13]), 8 nM; in the data set with JEKO-1, 15 nM; in the data set with Mino (Homo sapiens, MINO, 72 h, read-out: IC50 single drug), 40 nM; with Z-138 (Homo sapiens, Z-138, 72 h, read-out: IC50 single drug), 8 nM. Besides, the IC50 in the data set with REC-1 [2] (Homo sapiens, Rec1, 72 h, read-out: IC50 single drug) came out at 8 nM.
Take `O=P1(N(CCCl)CCCl)NCCCO1` (centres unmarked) [cyclophosphamide]: in [3], the tumor response entry was “Tumor growth was not inhibited”.
As for `N.N.[Cl][Pt][Cl]` [Cisplatin], the “therapeutic window (TW)” value is listed as 83.33 in [4] (Bci- (NSI), normalized to 1.00 for H526); 33.33 in [4] (CD34+, normalized to 1.00 for H526); 1041.7 in data set [4] (FTEC, normalized to 1.00 for H526); 1.00 in [4] (H526 (reference)); 58.33 in data set [4] (HUVEC, normalized to 1.00 for H526); 75.00 in data set [4] (huMSC, normalized to 1.00 for H526). The Therapeutic window turned out to be 0.50 in data set [5] (Bci- (NSI) relative to AML-2); 0.10 in [5] (CD34+ relative to AML-2); 1.67 in data set [5] (FTEC relative to AML-2); 0.83 in [5] (HUVEC relative to AML-2); 0.33 in data set [5] (huMSC relative to AML-2); 0.50 in data set [7] (Bci- (NSI) relative to B-ALL). The Therapeutic window in [7] (CD34+ relative to B-ALL) is 0.10; in data set [7] (FTEC relative to B-ALL) it was 20.00; in data set [7] (HUVEC relative to B-ALL), 0.83; in data set [7] (huMSC relative to B-ALL) it was 0.33; in [8] (CD34+ relative to MV4;11), 0.75; in data set [8] (HUVEC relative to MV4;11), 6.25. Also, the Therapeutic window in [8] (NSI (Bci-NSI) relative to MV4;11) is listed as 3.75; in data set [8] (huMSC relative to MV4;11) it was 2.50. Further, the IC50 in [6] is 3600 to 4100 nM.
As for `CCc1c(CO)c(CO)c2n1Cc1c(c3ccccc3n1C)C2` [BO-1978], the “cytotoxicity (in words)” value in data set [9] was “highly cytotoxic, with BO-1978 more so than BO-1055”.
With `Cc1[nH]c2ccccc2c1CCNCc1ccc(/C=C/C(=O)NO)cc1` [Panobinostat], the IC50 in the data set with REC-1 [10] turned out to be 60 nM; in the data set on HBL2 [11], 13 nM.
Consider `CC(=O)O[C@H]1C(=O)[C@@]2(C)[C@H]([C@H](OC(=O)c3ccccc3)[C@]3(O)C[C@H](OC(=O)[C@H](O)[C@@H](NC(=O)c4ccccc4)c4ccccc4)C(C)=C1C3(C)C)[C@]1(OC(C)=O)CO[C@@H]1C[C@@H]2O` [Paclitaxel], for which the values for the IC50 in the data set with REC-1 [10] and in the data set with HBL2 [11] were 21 nM and 16 nM, respectively.
For `COc1cc([C@@H]2c3cc4c(cc3[C@@H](O[C@@H]3O[C@@H]5CO[C@@H](C)O[C@H]5[C@H](O)[C@H]3O)[C@H]3COC(=O)[C@H]23)OCO4)cc(OC)c1O` [Etoposide], the IC50 in the data set on H60 is at least 20000 nM; in the data set on H82, 9700 nM; in the data set on H249 it was 4100 nM; in the data set on H841 it was 600 nM; in the data set on H209 it was 500 nM; in the data set with BCI-NSI hTERT (72 h) it was 500 nM. The IC50 with H526 was 800 nM; with H889, 1400 nM; in the data set on H678, 310 nM; in the data set with BMMSC (72 h), 70200 nM; in the data set with H417 it was 3700 nM; in the data set with H187 it was 600 nM. Besides, the half-inhibitory concentration (IC50) with FTE-hTERT (72 h) is 200000 nM; with H719, at least 10000 nM; in the data set on H562, 5500 nM; in the data set on H146 it was 2900 nM; in data set [12] (72 h) it was 90 nM; with H524, 1400 nM. Besides, in the data set with H69, the half-maximal inhibitory concentration (IC50) was determined as 400 nM.
Consider `CC[C@]1(O)C[C@H]2CN(CCc3c([nH]c4ccccc34)[C@@](C(=O)OC)(c3cc4c(cc3OC)N(C=O)[C@H]3[C@@](O)(C(=O)OC)[C@H](OC(C)=O)[C@]5(CC)C=CCN6CC[C@]43[C@@H]65)C2)C1` [Vincristine], for which the IC50 stood at 2 nM in the data set on H60 (H60, read-out: IC50); 5 nM with H128; 2 nM in the data set with H211; 7 nM with H82 (read-out: IC50); 1 nM in the data set on H249 (H249, read-out: IC50); 2 nM in the data set on H841 (read-out: IC50). The IC50 in the data set with H209 (read-out: IC50) worked out at 1 nM; in the data set on BCI-NSI hTERT (Bci-NSI hTERT immortalized lung bronchus epithelium, 72 hr, read-out: IC50), 200000 nM; with H526 (read-out: IC50), 136 nM; in the data set with H889 (read-out: IC50), 1 nM; with H678 (H678, read-out: IC50), 2 nM; in the data set with BMMSC (HuMSC bone marrow mesenchymal stem cells, 72 hr, read-out: IC50), 6300 nM. Further, the IC50 in the data set on H417 (read-out: IC50) turned out to be 2 nM; in the data set with H187 (read-out: IC50), 1 nM; in the data set on FTE-hTERT (FTEC Fallopian tube epithelium, 72 hr, read-out: IC50) it was 250000 nM; in the data set on H719 (H719, read-out: IC50), 2 nM; in the data set with H562 (H562, read-out: IC50), 1 nM; with H146 (read-out: IC50) it was 2900 nM. Moreover, the IC50 turned out to be 2340 nM in [12] (CD34 (cord blood hematopoietic progenitors), 72 hr, read-out: IC50); 1 nM with H524 (read-out: IC50); 3 nM in the data set with H69 (read-out: IC50). The Therapeutic window in data set [8] was determined as 1.00.
